In US11098041B2 (Merck Patent GmbH, priority 2014, dated 2021) one finds IC50 data, which are given here for 18 compounds.

Where only a bound is given, the exact number is not on record here.

In experiment [1] the test system is anti-IgM-induced expression of CD69 on CD19 positive cells (B cells) in human PBMCs. Kind of experiment: Assay C: PBMC IC50 assay (anti-IgM-induced CD69 expression). The settings on record: anti-IgM stimulation. The class given is cell-based. The procedure: Btk is critical for mediating the signalling of B cell antigen receptor (BCR) after anti-IgM stimulation. Based on this principle, a functional cell-based assay was established to determine the potency of compounds at inhibiting anti-IgM-induced expression of CD69, a downstream BCR signaling event, in freshly isolated human peripheral blood mononuclear cells (PBMCs). In the assay, a 90 μl PBMC suspension containing 2.5×10^5 cells was pre-treated with 10 μl of test compound at various concentrations for an hour, and then incubated overnight (approximately 16-18 hours) with 5 μl 420 μg/ml affiniPure F(ab′)2 fragment goat anti-human IgM Fc fragment per well (Dianova, Cat. No.: 109-006-129). After the incubation, the cells were washed and immunostained with an APC-labeled mouse anti-human CD69 (BD Biosciences; clone: FN50), a PerCP-Cy5.5 labelled mouse anti-human CD19 (BD Biosciences; clone: SJ25C1) and a FITC-labelled mouse anti-human CD3 (BD Biosciences; clone: HIT3a), and fixed for flow cytometric analysis of CD69 expression on CD19 positive cells (B cells). The percentage of CD69 expressing CD19 positive cells was plotted against the concentrations of test compounds to obtain a concentration response curve, and calculate an IC50 value as a measure of the potency of test compounds in the assay.

A further experiment addresses full-length human BTK (Homo sapiens (Human), UniProt Q06187). Description: Assay A: microfluidic off-chip mobility shift assay against BTK enzyme. The class given is biochemical.
Experiment [2] concerns the target BTK C481S (His-TEV-hsBTK(328-659)(C481S)) (Homo sapiens (Human), UniProt Q06187, C481S). Kind of experiment: Assay B: microfluidic off-chip mobility shift assay against BTK C481S enzyme. The settings on record: BTK C481S mutant. The class given is biochemical. The protocol: The mechanics of the assay platform are described by the vendor (PerkinElmer, Hopkinton, Mass.) on their website at the following URL: http://caliperls.com.
5 uL of enzyme buffer and 7.5 uL of ATP/KinKDR peptide substrate mix were added to Matrix (#4315) 384-well, sterile, flat-bottom polypropylene plates (Thermo Fisher Scientific, Hudson, N.H.) with 125 nL of serially diluted compounds prepared in 100% DMSO, and incubated for 90 min. at 25° C. Following the incubation period, reactions were terminated by adding 65 uL quench buffer consisting of 100 mM HEPES, pH 7.5, 0.015% Brij-35 (30%), 0.277% Coating Reagent #3 (PerkinElmer, Mountain View, Calif.), 5% DMSO. Terminated reactions were monitored at −2 PSI, −3000 V/−700 Volts in a LabChip 3000 plate reader from Caliper Life Sciences, a PerkinElmer Company (Hopkinton, Mass.), and the activity was quantified by laser-induced fluorescence measuring the charge/mass difference between substrate and product resulting from peptide phosphorylation. IC50 and efficacy were determined by plotting log [Inhibitor] vs. % Activity in GeneData Screener (Basel, Switzerland).

full-length human BTK, sequence (Q06187 whole entry): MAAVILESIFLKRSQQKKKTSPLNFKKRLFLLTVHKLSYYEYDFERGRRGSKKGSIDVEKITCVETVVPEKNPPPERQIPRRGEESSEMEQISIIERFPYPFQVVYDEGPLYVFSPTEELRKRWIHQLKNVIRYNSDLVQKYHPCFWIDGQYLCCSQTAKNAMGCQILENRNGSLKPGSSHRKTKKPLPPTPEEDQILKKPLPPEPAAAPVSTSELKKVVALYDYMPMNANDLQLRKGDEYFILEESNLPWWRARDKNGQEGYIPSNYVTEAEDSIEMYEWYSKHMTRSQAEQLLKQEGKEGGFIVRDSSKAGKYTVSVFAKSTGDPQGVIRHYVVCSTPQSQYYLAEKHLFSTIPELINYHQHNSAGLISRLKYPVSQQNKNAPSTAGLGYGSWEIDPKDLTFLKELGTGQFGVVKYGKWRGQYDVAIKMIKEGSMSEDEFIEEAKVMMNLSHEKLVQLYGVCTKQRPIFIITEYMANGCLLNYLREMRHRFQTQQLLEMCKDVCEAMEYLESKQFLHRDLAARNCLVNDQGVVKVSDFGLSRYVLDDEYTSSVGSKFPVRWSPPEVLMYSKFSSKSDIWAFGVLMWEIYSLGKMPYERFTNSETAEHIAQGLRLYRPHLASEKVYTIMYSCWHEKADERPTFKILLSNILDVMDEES
BTK C481S (His-TEV-hsBTK(328-659)(C481S)), sequence (Q06187 328-659 C481S): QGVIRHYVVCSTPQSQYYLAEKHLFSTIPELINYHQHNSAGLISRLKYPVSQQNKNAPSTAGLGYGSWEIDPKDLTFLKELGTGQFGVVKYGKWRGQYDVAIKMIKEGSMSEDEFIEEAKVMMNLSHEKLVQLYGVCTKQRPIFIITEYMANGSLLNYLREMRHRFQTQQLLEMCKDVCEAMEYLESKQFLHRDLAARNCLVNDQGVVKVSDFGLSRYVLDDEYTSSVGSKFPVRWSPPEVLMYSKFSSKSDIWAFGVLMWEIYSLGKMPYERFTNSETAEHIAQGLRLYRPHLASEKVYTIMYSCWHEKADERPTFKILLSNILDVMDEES

What is called IC50 is the concentration that gives 50% inhibition. For the compound `CCn1cc(-c2nc3c(-c4ccc(CNC(=O)c5nnc(C(C)(C)C)o5)c(F)c4)ccnc3[nH]2)cn1` [Example 135, 5-(tert-butyl)-N-(4-(2-(1-ethyl-1H-pyrazol-4-yl)-3H-imidazo[4,5-b]pyridin-7-yl)-2-fluorobenzyl)-1,3,4-oxadiazole-2-carboxamide], the IC50 (in experiment [1]; at full-length human BTK) was < 100 nM throughout. Take `CN1CC=C(c2ccc(-c3nc4c(-c5ccc(CNC(=O)c6noc(C(C)(C)C)n6)c(F)c5)ccnc4[nH]3)nc2)CC1` [Example 85, 5-tert-Butyl-N-[(2-fluoro-4-[2-[5-(1-methyl-1,2,3,6-tetrahydropyridin-4-yl)pyridin-2-yl]-3H-imidazo [4,5-b]pyridin-7-yl]phenyl)methyl]-1,2,4-oxadiazole-3-carboxamide; trifluoroacetic acid]: the figures for the IC50 (in experiment [1]; at full-length human BTK) were 100 to 1000 nM and < 100 nM, respectively. On the same counts, the results for `CC(C)(C)c1noc(C(=O)NCc2ccc(-c3ccnc4[nH]c(-c5ccc(N6CCC(F)(F)CC6)cn5)nc34)cc2F)n1` [Example 164, 3-tert-butyl-N-[(4-[2-[5-(4,4-difluoropiperidin-1-yl)pyridin-2-yl]-3H-imidazo[4,5-b]pyridin-7-yl]-2-fluorophenyl)methyl]-1,2,4-oxadiazole-5-carboxamide] are 100 to 1000 nM and < 100 nM. As to `O=C(c1ccc(-c2nc3c(-c4cccc(N5CCOc6cc(C7CC7)cc(F)c6C5=O)c4CO)ccnc3[nH]2)cc1)N1CCOCC1` [Example 1, 8-Cyclopropyl-6-fluoro-4-[2-(hydroxymethyl)-3-(2-[4-[(morpholin-4-yl)carbonyl]phenyl]-3H-imidazo [4,5-b]pyridin-7-yl)phenyl]-2,3,4,5-tetrahydro-1,4-benzoxazepin-5-one], the IC50 was 1000 to 5000 nM in experiment [1] and < 100 nM on full-length human BTK. For `CN(C)C(=O)N1CC=C(c2nc3c(-c4ccc(CNC(=O)c5noc(C(C)(C)C)n5)c(F)c4)ccnc3[nH]2)CC1` [Example 143, 4-[7-(4-{[(5-tert-Butyl-[1,2,4]oxadiazole-3-carbonyl)-amino]-methyl}-3-fluoro-phenyl)-3H-imidazo[4,5-b]pyridin-2-yl]-3,6-dihydro-2H-pyridine-1-carboxylic Acid Dimethylamide], the IC50 (in experiment [1]; on full-length human BTK) was < 100 nM each time. In turn, `Cn1cc(-c2nc3c(-c4ccc(CNC(=O)c5nc(C6(C)CC6)no5)c(F)c4)ccnc3[nH]2)cn1` [Example 165, N-([2-fluoro-4-[2-(1-methyl-1H-pyrazol-4-yl)-3H-imidazo[4,5-b]pyridin-7-yl]phenyl]methyl)-3-(1-methylcyclopropyl)-1,2,4-oxadiazole-5-carboxamide] displayed an IC50 in experiment [1] of 100 to 1000 nM. Same read-out and setting: the figure for `Cn1cc(-c2nc3c(-c4ccc(CNC(=O)C5CCC(C(C)(C)C)CC5)c(F)c4)ccnc3[nH]2)cn1` (centres unmarked) [Example 15, 4-tert-Butyl-cyclohexanecarboxylic acid 2-fluoro-4-[2-(1-methyl-1H-pyrazol-4-yl)-3H-imidazo[4,5-b]pyridin-7-yl]-benzylamide] is 1000 to 5000 nM. Consider `C=CC(=O)Nc1cccc(-c2nc3nccc(-c4ccc(CNC(=O)c5nc(C(C)(C)C)no5)c(F)c4)c3[nH]2)c1` [Example 163, 3-tert-butyl-N-[(2-fluoro-4-[2-[3-(prop-2-enamido)phenyl]-3H-imidazo[4,5-b]pyridin-7-yl]phenyl)methyl]-1,2,4-oxadiazole-5-carboxamide], for which the IC50 (in experiment [1]; on full-length human BTK) was < 100 nM in each case.

Consider `Cn1cc(-c2nc3c(-c4ccc(C5(NC(=O)c6noc(C(C)(C)C)n6)CC5)c(F)c4)ccnc3[nH]2)cn1` [Example 51, 5-tert-Butyl-N-(1-[2-fluoro-4-[2-(1-methyl-1H-pyrazol-4-yl)-3H-imidazo[4,5-b]pyridin-7-yl]phenyl]cyclopropyl)-1,2,4-oxadiazole-3-carboxamide], for which the IC50 (in experiment [1]; at full-length human BTK) was < 100 nM in each case. Consider `CC(C)(C)c1noc(C(=O)NCc2ccc(-c3ccnc4[nH]c(-c5ccc(CN6CCOCC6)cn5)nc34)cc2F)n1` [Example 162, 3-tert-butyl-N-[(2-fluoro-4-[2-[5-(morpholin-4-ylmethyl)pyridin-2-yl]-3H-imidazo[4,5-b]pyridin-7-yl]phenyl)methyl]-1,2,4-oxadiazole-5-carboxamide], for which the IC50 (in experiment [1]; on full-length human BTK) was < 100 nM each time.

In experiment [1], `Cn1cc(-c2nc3c(-c4ccc(CNC(=O)c5cc6c(s5)CCCC6)c(F)c4)ccnc3[nH]2)cn1` [Example 132, N-(2-fluoro-4-(2-(1-methyl-1H-pyrazol-4-yl)-3H-imidazo[4,5-b]pyridin-7-yl)benzyl)-4,5,6,7-tetrahydrobenzo[b]thiophene-2-carboxamide] displayed an IC50 of 100 to 1000 nM. On to `COc1ccc(-c2nc3c(-c4ccc(CNC(=O)c5nc(C(C)(C)C)no5)c(F)c4)ccnc3[nH]2)nc1` [Example 161, 3-tert-butyl-N-([2-fluoro-4-[2-(5-methoxypyridin-2-yl)-3H-imidazo[4,5-b]pyridin-7-yl]phenyl]methyl)-1,2,4-oxadiazole-5-carboxamide], for which the IC50 (in experiment [1]; at full-length human BTK) was < 100 nM each time. For the compound `Cn1cc(-c2nc3c(-c4cccc(N5CCc6cc(C7CC7)ccc6C5=O)c4CO)ccnc3[nH]2)cn1` [Example 7, 6-cyclopropyl-2-(2-(hydroxymethyl)-3-(2-(1-methyl-1H-pyrazol-4-yl)-3H-imidazo[4,5-b]pyridin-7-yl)phenyl)-3,4-dihydroisoquinolin-1(2H)-one], the IC50 is 1000 to 5000 nM in experiment [1] and < 100 nM at full-length human BTK. On to `Cn1cc(-c2nc3c(-c4cnc(CNC(=O)c5noc(C(C)(C)C)n5)c(F)c4)ccnc3[nH]2)cn1` [Example 12, 5-tert-Butyl-[1,2,4]oxadiazole-3-carboxylic acid {3-fluoro-5-[2-(1-methyl-1H-pyrazol-4-yl)-3H-imidazo[4,5-b]pyridin-7-yl]-pyridin-2-ylmethyl}-amide], for which the values for the IC50 (in experiment [1]; at full-length human BTK) were 100 to 1000 nM and < 100 nM, respectively.

As for `COc1cccc(-c2nc3c(-c4ccc(CNC(=O)c5noc(C(C)(C)C)n5)c(F)c4)ccnc3[nH]2)c1` [Example 73, 5-tert-Butyl-N-([2-fluoro-4-[2-(3-methoxyphenyl)-3H-imidazo[4,5-b]pyridin-7-yl]phenyl]methyl)-1,2,4-oxadiazole-3-carboxamide], the half-inhibitory concentration (IC50) in experiment [1] is 100 to 1000 nM; on full-length human BTK, < 100 nM. As to `CC(C)(C)c1noc(C(=O)NCc2ccc(-c3ccnc4[nH]c(C5CC5)nc34)cc2F)n1` [Example 28, 3-tert-Butyl-[1,2,4]oxadiazole-5-carboxylic acid 4-(2-cyclopropyl-3H-imidazo[4,5-b]pyridin-7-yl)-2-fluoro-benzylamide], the half-maximal inhibitory concentration (IC50) in experiment [1] lay within 1000 to 5000 nM.

Consider `CC(C)(C)c1nnc(C(=O)NCc2ccc(-c3ccnc4[nH]c(-c5cnn(C6CCOCC6)c5)nc34)cc2F)o1` [Example 126, 5-tert-Butyl-[1,3,4]oxadiazole-2-carboxylic acid 2-fluoro-4-{2-[1-(tetrahydro-pyran-4-yl)-1H-pyrazol-4-yl]-3H-imidazo[4,5-b]pyridin-7-yl}-benzylamide], for which the IC50 (in experiment [2]; at full-length human BTK) was < 100 nM in each case. `CC(C)(C)c1ccc(C(=O)Nc2cccc(-c3ccnc4[nH]c(-c5ccc(C(=O)N6CCOCC6)cc5)nc34)c2CO)cc1` [Example 46, 4-tert-Butyl-N-[2-(hydroxymethyl)-3-(2-[4-[(morpholin-4-yl)carbonyl]phenyl]-3H-imidazo[4,5-b]pyridin-7-yl)phenyl]benzamide]: the IC50 (in experiment [2]; on full-length human BTK) was 1000 to 5000 nM in each case.
